# Results from patent publication US10323007B1, “N2N N4-disubstituted quinazoline-2,4-diamines and uses thereof” (University of South Florida, priority 2016, dated 2019).
# Read-outs that look alike come from different tables or passages of the source.
# Legend:
# [1] = tested on: A. baumannii 1403; test: MIC assay, strain 1403; type: cell-based, Acinetobacter baumannii; settings: Acinetobacter baumannii, strain 1403
# Protocol: (§1) MIC and MBC assays were performed in this study as documented by us previously.^17,23,24,25 The A. baumannii strains used are detailed in Table 7.
# [2] = tested on: A. baumannii 1646; test: MIC assay, strain 1646; type: cell-based, Acinetobacter baumannii; settings: Acinetobacter baumannii
# Protocol: as §1
# [3] = tested on: A. baumannii 1649; test: MIC assay, strain 1649; type: cell-based, Acinetobacter baumannii; settings: Acinetobacter baumannii, strain 1649
# Protocol: as §1
# [4] = tested on: A. baumannii 1650; test: MIC assay, strain 1650; type: cell-based, Acinetobacter baumannii; settings: Acinetobacter baumannii, strain 1650
# Protocol: as §1
# [5] = tested on: A. baumannii 1651; test: MIC assay, strain 1651; type: cell-based, Acinetobacter baumannii; settings: Acinetobacter baumannii, strain 1651
# Protocol: as §1
# [6] = tested on: A. baumannii 1652; test: MIC assay, strain 1652; type: cell-based, Acinetobacter baumannii; settings: Acinetobacter baumannii, strain 1652
# Protocol: as §1
# [7] = tested on: A. baumannii 1403; test: minimal bactericidal concentration (MBC) assay, strain 1403; type: cell-based; settings: Acinetobacter baumannii, Table 8, read-out: MBC90 1403
# Excerpt: (§2) Lead quinazolines 4, 5, 26, 29, 27, and 30 were selected to be further evaluated for antimicrobial effects. The first assay utilized was a minimal bactericidal concentration (MBC) assay, to assess whether leads compounds were bacteriostatic or bactericidal. The six lead agents were screened to identify their MBC90 towards each of the six A. baumannii isolates used in the SAR studies (Table 8), however for simplicity only the representative data for isolate 1646 is detailed below (Table 6). […] Further to this, we were able to obtain complete eradication of bacterial growth for these two compounds at 1 μM for 24 and 5 μM for 25.
# as §1
# [8] = tested on: A. baumannii 1646; test: minimal bactericidal concentration (MBC) assay, strain 1646; type: cell-based, Acinetobacter baumannii
# Excerpt: as §2, §1
# [9] = tested on: A. baumannii 1649; test: minimal bactericidal concentration (MBC) assay, strain 1649; type: cell-based; settings: Acinetobacter baumannii, Table 8, read-out: MBC90 1649
# Excerpt: as §2, §1
# [10] = tested on: A. baumannii 1650; test: minimal bactericidal concentration (MBC) assay, strain 1650; type: cell-based; settings: Acinetobacter baumannii, Table 8, read-out: MBC90 1650
# Excerpt: as §2, §1
# [11] = tested on: A. baumannii 1651; test: minimal bactericidal concentration (MBC) assay, strain 1651; type: cell-based; settings: Acinetobacter baumannii, Table 8, read-out: MBC90 1651
# Excerpt: as §2, §1
# [12] = tested on: A. baumannii 1652; test: minimal bactericidal concentration (MBC) assay, strain 1652; type: cell-based; settings: Acinetobacter baumannii, Table 8, read-out: MBC90 1652
# Excerpt: as §2, §1
# [13] = tested on: A. baumannii 1403 biofilm; test: biofilm eradication determination assay, strain 1403; type: cell-based, Acinetobacter baumannii; settings: 90% biofilm eradication, Table 8
# Protocol: (§3) These assays were performed as described by us previously,^26,24 as follows. Each of the A. baumannii strains were grown overnight in Mueller Hinton Broth (MHB). The next day these were used to seed fresh MHB to an OD600 of 0.5, with 150 μL then added to the wells of a 96 well plate and grown for 24 hours at 37° C. After 24 hours, the planktonic bacteria were carefully removed and fresh MHB was added with increasing concentrations of lead quinazolines. After incubation at 37° C. for 24 hours, planktonic cells were removed and biofilms were washed three times with phosphate buffered saline (PBS). Biofilms were then resuspended in PBS and plated for cell viability on tryptic soy agar. Biofilm recovery was assessed compared to no drug controls, and determined as percent eradication. This was used to determine MBEC90 values (Minimal Biofilm Eradication Concentration), where the viability of cells within the biofilm was reduced by 90%.
# [14] = tested on: A. baumannii 1646 biofilm; test: biofilm eradication determination assay, strain 1646; type: cell-based, Acinetobacter baumannii
# Protocol: as §3
# [15] = tested on: A. baumannii 1649 biofilm; test: biofilm eradication determination assay, strain 1649; type: cell-based, Acinetobacter baumannii; settings: 90% biofilm eradication, Table 8
# Protocol: as §3
# [16] = tested on: A. baumannii 1650 biofilm; test: biofilm eradication determination assay, strain 1650; type: cell-based, Acinetobacter baumannii; settings: 90% biofilm eradication, Table 8
# Protocol: as §3
# [17] = tested on: A. baumannii 1651 biofilm; test: biofilm eradication determination assay, strain 1651; type: cell-based, Acinetobacter baumannii; settings: 90% biofilm eradication, Table 8
# Protocol: as §3
# [18] = tested on: A. baumannii 1652 biofilm; test: biofilm eradication determination assay, strain 1652; type: cell-based, Acinetobacter baumannii; settings: 90% biofilm eradication, Table 8
# Protocol: as §3
# [19] = tested on: A. baumannii strain 1403; type: cell-based, Acinetobacter baumannii; settings: serial passage, 8 days, start 0.5× MIC
# Protocol: An important attribute of novel antibiotics is the ability to fend off the development of resistance towards their effects. To assess this capacity, A. baumannii strains were incubated overnight with 0.5× MIC of each of the frontrunners. The next day cells were washed and used to inoculate fresh media that contained a two-fold increase in drug. This was repeated for a total of 8 days, alongside sulfamethoxazole (SMX) and trimethoprim (TMP) controls, both of which target the same pathway as our lead agents (FIG. 2).
# In order to test potential resistance towards the quinazolines, a serial passage assay was performed alongside control compounds (Sulfamethoxazole and Trimethoprim), as described by us previously.^24 A. baumannii strain 1403 was grown overnight in LB media at 37° C. The next day cultures were diluted 1:100 in fresh media and seeded into a 96-well plate. Lead quinazolines or control agents were added to respective wells at half MIC concentrations. […] These were then grown overnight, and the procedure repeated for a total of eight days.
# [20] = tested on: human HepG2 cells; type: cell-based
# Protocol: Cytotoxicity assays were performed using human HepG2 cells (human liver epithelial with hepatocellular carcinoma), as described by us previously.^17,24 Cells were cultured in Dulbecco's modified eagle medium (DMEM), supplemented with 10% fetal bovine serum and 1% penicillin-streptomycin for 3 days at 37° C. and 5% CO2. Cells were then diluted to 1×10^5 ml^−1 using fresh DMEM and added to 96 well tissue culture plates at a volume of 100 μL. Plates were incubated for 24 hours at 37° C. and 5% CO2, allowing the cells to adhere to the plastic. […] Plates were then incubated for 48 hours at 37° C. and 5% CO2. After 48 hours the DMEM was removed and 100 μL of new media was added containing MTT (3-(4, 5-dimethylthiazol-2-yl)-2, 5-diphenyltetrazolium bromide), followed by incubation for four hours at 37° C. and 5% CO2. […] Lead compounds were solvated in 100% DMSO for these studies, which served as the negative control. LD50 values were determined for each compound by comparison to vehicle only controls.
# [21] = tested on: A. baumannii dihydrofolate reductase (DHFR) enzyme; test: tetrahydrofolic acid in vitro rescue assay; type: cell-based; settings: tetrahydrofolic acid 0-225 μM; 24 hours incubation
# Protocol: To evaluate the effect quinazolines have on DHFR reduction of dihydrofolic acid, a tetrahydrofolic acid assay was performed as described by us previously.^17 A. baumannii strain 1403 was grown overnight in LB, and then diluted 1:1000 into fresh media. These cultures were then seeded into a sterile 96-well plate with tetrahydrofolic acid added at concentrations ranging from 0 to 225 μM. […] MICs were determined and used to assess whether the addition of tetrahydrofolic acid rescued A. baumannii growth from quinazoline inhibition. Assays were repeated in triplicate, alongside trimethoprim and sulfamethoxazole controls.
# [22] = tested on: A. baumannii 1646; test: murine model of lethal peritonitis; type: in vivo, mice; settings: 30 mg kg^-1 intraperitoneal, one hour post challenge, 5 days
# Protocol: As a final assessment, we used a murine model of lethal A. baumannii infection to determine the efficacy of quinazolines in vivo. This was performed using frontrunner 5, which had the most promising properties from all of our biological testing. Accordingly, mice were inoculated with a lethal dose of A. baumannii via intraperitoneal injection on the right side of the abdomen. One hour post challenge, mice were treated with an intraperitoneal injection of 2 mg kg^−1 of frontrunner 5 on the left side of the abdomen. As a control, we also performed similar testing using 30 mg kg^−1 of tigecycline, which we already know our test strain to be susceptible to in vitro.
# Characteristics of pre-moribund state include: hunched posture, rapid, shallow and/or labored breathing, ruffled fur, lethargy, failure to respond to stimuli, soiled anogenital area, paralysis, paresis, head tilt, circling, vocalizations, non-purposeful movements, and/or were unable to eat or drink. Those mice reaching this state prior to the completion of the 5-day infection period were euthanized. The number of mice surviving between control and treatment groups was compared and analyzed for statistical significance using a log-rank (Mantel-Cox) test.
# [23] = tested on: human red blood cells
# Protocol: A hemolysis assay was performed using whole human blood (Bioreclamation), as described previously.^24 Briefly, human red blood cells (hRBCs) were resuspended in 20% v/v 1×HA buffer (4.25 mL 10% NaCl; 1 mL CaCl2) in 50 mL sterile water), before lead compounds were added at 2 μM, 10 μM and 20 μM, in a final volume of 100 μL. Cells were incubated for 15 minutes at 37° C. before being centrifuged at 5,500 g for 1 minute to pellet non-lysed hRBCs. The supernatant was removed, added to a 96-well Microtiter plate and the OD543 read using a BioTek Synergy2 plate reader. The negative control was vehicle only (DMSO), and the positive control was 1% triton X-100.
compound,measurement,setting,value
"CNc1nc(NCc2ccccc2)nc2ccc(Br)cc12 [Compound 4, N^2-Benzyl-6-bromo-N^4-methylquinazoline-2,4-diamine]",MIC,"[1]; Table 2, read-out: 1403 MIC",50 µM
same,MIC,"[1]; lead quinazolines, Table 8, read-out: MIC 1403",25 µM
same,MIC,"[2]; Table 6, representative data for isolate 1646, read-out: MIC",0.5 µM
same,MIC,"[2]; strain 1646, Table 2, read-out: 1646 MIC",2 µM
same,MIC,"[2]; strain 1646, lead quinazolines, Table 8, read-out: MIC 1646",0.5 µM
same,MIC,"[3]; Table 2, read-out: 1649 MIC",12 µM
same,MIC,"[3]; lead quinazolines, Table 8, read-out: MIC 1649",11 µM
same,MIC,"[4]; Table 2, read-out: 1650 MIC",15 µM
same,MIC,"[4]; lead quinazolines, Table 8, read-out: MIC 1650",12 µM
same,MIC,"[5]; Table 2, read-out: 1651 MIC",8 µM
same,MIC,"[5]; lead quinazolines, Table 8, read-out: MIC 1651",5 µM
same,MIC,"[6]; Table 2, read-out: 1652 MIC",20 µM
same,MIC,"[6]; lead quinazolines, Table 8, read-out: MIC 1652",20 µM
same,MBC,[7],22 µM
same,MBC,"[8]; Acinetobacter baumannii, 1646, strain 1646, Table 8 and text, read-out: MBC90 1646",0.81 µM
same,MBC,"[8]; Acinetobacter baumannii, Table 6, representative data for isolate 1646, read-out: MBC90",0.8 µM
same,MBC,[9],4.7 µM
same,MBC,[10],15 µM
same,MBC,[11],2.1 µM
same,MBC,[12],9.7 µM
same,MBEC90 1403,[13],26 µM
same,MBEC90,"[14]; Table 6, representative data for isolate 1646",3.3 µM
same,reduction in biofilm viability,"[14]; at 50 μM, strain 1646",3.6 log
same,MBEC90 1646,"[14]; strain 1646, 90% biofilm eradication, Table 8 and text",3.3 µM
same,MBEC90 1649,[15],44.33 µM
same,MBEC90 1650,[16],9.61 µM
same,MBEC90 1651,[17],37.34 µM
same,MBEC90 1652,[18],>100 µM
same,increase in MIC over the 8-day test period,[19],4 fold
same,HepG2 cell viability,[20]; at 25 μM (highest concentration tested),43%
same,LD50(HepG2),"[20]; human, 48 h",23 µM
"CNc1nc(NCc2ccccc2)nc2ccc(C(C)C)cc12 [Compound 25, N^2-Benzyl-6-isopropyl-N^4-methylquinazoline-2,4-diamine]",MIC,"[1]; Tables 1, 3, 4, 5 and footnotes, read-out: 1403 MIC",> 50 µM
same,MIC,"[2]; strain 1646, Tables 1, 3, 4, 5 and footnotes, read-out: 1646 MIC",25 µM
same,MIC,"[3]; Tables 1, 3, 4, 5 and footnotes, read-out: 1649 MIC",35 µM
same,MIC,"[4]; Tables 1, 3, 4, 5 and footnotes, read-out: 1650 MIC",> 50 µM
same,MIC,"[5]; Tables 1, 3, 4, 5 and footnotes, read-out: 1651 MIC",35 µM
same,MIC,"[6]; Tables 1, 3, 4, 5 and footnotes, read-out: 1652 MIC",> 50 µM
same,concentration giving complete eradication of bacterial growth,[8]; isolate 1646,5 µM
same,THF concentration sufficient to rescue bacterial growth,[21],10 µM
"CN(C)c1cc(NC(=O)CNC(C)(C)C)c(O)c2c1C[C@H]1C[C@H]3[C@H](N(C)C)C(O)=C(C(N)=O)C(=O)[C@@]3(O)C(O)=C1C2=O [tigecycline, reference compound]",survival rate of infected animals,[22],66%
Triton X-100,lysis of human red blood cells,[23],100%
